Laboratory results reported in US7053043B1, “Pharmaceutical compositions comprising synthetic peptide copolymers and methods for preventing and treating GVHD and HVGD” (Yeda Research and Development Co.Ltd., priority 1999, dated 2006).

How the values were obtained:
[1] = tested on: proliferation of B10.PL (H-2u) responder cells to BALB/c stimulator cells; assay: Mixed lymphocyte reaction (MLR) across major histocompatibility barriers, B10.PL vs BALB/c; assay type: cell-based, mice; details: 20 μg/well, Cop 1 Batch I, 1:1 ratio of responder to stimulator cells
Method: Responder cells for MLR reactions across major histocompatibility barriers were harvested from spleen of non-immunized mice while responder cells for MLR across minor histocompatibility barriers were harvested from mice which were preimmunized with irradiated (30 Gy) 50×10^6 stimulator spleen cells 21 days before. Responder cells (5×10^5 spleen cells per well) were tested for their proliferative response by plating with different amounts (2.5 to 10×10^5) of irradiated stimulator cells, in presence or absence of various peptide inhibitors (10–100 μg per well). Cultures were set up in 200 μl media containing 10% FCS in flat-bottom microtiter plates. After 4 days of incubation, cultures were pulsed with 1 μCi of [^3H]thymidine for an additional 16 hours. Results are represented as mean counts per minute (cpm) thymidine incorporation from triplicate cultures.
To investigate the feasibility of inhibition of MLR by Copolymer 1, an MLR system was developed in which Copolymer 1 was tested for its ability to inhibit the proliferation of B10.PL (H-2^u) responder cells to stimulator cells of either the same (PL/J) or different (BALB/c) H-2 haplotype. For comparison, the inhibitory MBP Ac 1-11[4A], MBP 35-47, a combination of Ac 1-1[4A]+MBP 35-47, MBP 89-101 and KM-core peptides, described in Schlegel et al. (1994), were used in the MLR experiments.
The inhibition obtained by Copolymer 1 was similar (in response to minor histocompatibility antigen) or even higher (in response to major histocompatibility antigen) than the inhibition obtained with the combination of the two synthetic peptides Ac 1-11[4A] and MBP 35-47, which specifically bind to the class II molecules I-A^u and the I-E^u, respectively. The molar efficiency of Copolymer 1 of M.W. 6000 is even higher since the molecular weight of the synthetic peptides is 4–5 fold lower.

[2] = tested on: presentation of BALB/c minor H antigens by B10.D2 APC to B10.D2 responder T cells; assay: Proliferative responses to minor H antigens, APC pre-pulsed with Cop 1 and washed; assay type: cell-based, mice; details: washed
Method: B10.D2 mice were injected ip. with irradiated (20 Gy) BALB/c spleen cells 72 hours prior to the assay. B10.D2 spleen cells were harvested, depleted of red blood cells (RBC) and used as irradiated (10 Gy) antigen-presenting cells (APC) presenting BALB/c mH antigens. For the primary assay, APC were plated at 2.5×10^5 cells per well in 96-well round-bottom plates and incubated with 2.5×10^5 nylon-wool-enriched responder T cells (>88% CD3^+ by FACS analysis) from naive B10.D2 mice in the presence or absence of increasing concentrations of Copolymer 1 (2.5–80 μg/well). After 96 hours of incubation, cells were pulsed with 1 μCi [^3H]-thymidine for an additional 16 hours before harvesting. In the secondary assay, irradiated APC were plated at 2.5×10^5 cells/well in 96-well round-bottom plates, preincubated for 24 hours at 37° C. with increasing concentrations of GLAT (2.5–80 μg/well) or with medium alone, and thereafter washed three times before the addition of 2.5×10^5 nylon-wool-enriched responder T cells from naive B10.D2 mice. Culture medium was RPMI 1640, supplemented with 10% pre-screened fetal calf serum, 2 mM glutamine, 50 μM 2-mercaptoethanol, 100 U/ml penicillin, and 100 μg/ml streptomycin.
[…] Results are expressed as cpm from triplicate cultures. Standard deviations were <20% of the mean. Culture medium was RPMI 1640, supplemented with 10% pre-screened fetal calf serum, 2 mM glutamine, 50 μM 2-mercaptoethanol, 100 U/ml penicillin, and 100 μg/ml streptomycin.

[3] = tested on: GVHD in B10.D2 → BALB/c recipients; assay: Murine lethal GVHD model after bone marrow transplantation, B10.D2/nSnJ→BALB/c; assay type: in vivo, mice; details: for overall incidence of GVHD: 600 μg per injection (ip + sc)
Method: The murine GVHD model of B10.D2/nSnJ→BALB/c mice (both H-2^d) across minor histocompatibility barriers, was selected since it is similar to the MHC matched bone marrow transplantation in humans. For the induction of GVHD, 10×10^6 bone marrow and 100×10^6 spleen cells from B10.D2 mice were injected into lethally irradiated (8.0 Gy) BALB/c recipients. […] Recipient mice were 12–13 weeks at the time of transplantation.
Based on previous studies with Cop 1 in EAE (Sela et al., 1990; Teitelbaum et al., 1971; Teitelbaum et al., 1973) and class II-binding competitor peptides in GVHD (Schlegel et al., 1994), the dosage of 600 μg per injection was selected, half of which was administered intraperitoneally (ip), whereas the other half was given subcutaneously (sc). Treatment of BALB/c recipient mice was initiated on day −1, followed by daily injections for the first five weeks starting on day 0 after transplantation. The frequency of injections was tapered to three times per week for the subsequent two weeks and to two times per week for another two weeks and then discontinued. Throughout the experiment, copolymers and controls were administered once a week with incomplete Freund's adjuvant (IFA) ip as a depot dose (Schlegel et al., 1994). Treatment was discontinued 9 weeks after transplantation.
Mice were followed up daily for 140 days after bone marrow transplantation for signs of GVHD. Disease severity was assessed by mortality, loss of body weight, and by the extent of macroscopic skin involvement scored on a cumulative scale (from min O— max 8): head 1, neck 1, back (1/3, 2/3, 3/3) 1–3, front (1/3, 2/3, 3/3) 1–3. Skin biopsies were examined as previously described (Schlegel et al., 1994).
(ii) Effect of Copolymer 1 Treatment on the Incidence, Onset and Severity of GVHD. […] For the first five weeks after transplant mice were injected daily as outlined in Materials and Methods, followed by a tapering schedule over an additional four weeks.
(iii) Effect of Copolymer 1 treatment on survival. […]

**Q.** How did the “inhibition of MLR” value [1] turn out when Glatiramer acetate [Cop 1] was run?
**A.** 77%

**Q.** And the “cpm (Cop 1 Pulsing Concentration)” value ([2]; APC pre-pulsed 24 hours with Cop 1 1.5 μg (Batch II))?
**A.** 15,533 cpm

**Q.** And the “cpm (Cop 1 Pulsing Concentration)” value ([2]; APC pre-pulsed 24 hours with Cop 1 5 μg (Batch II))?
**A.** 12,377 cpm

**Q.** What about the “cpm (Cop 1 Pulsing Concentration)” value ([2]; APC pre-pulsed 24 hours with Cop 1 10 μg (Batch II)) of the same substance?
**A.** 11,425 cpm

**Q.** And the “cpm (Cop 1 Pulsing Concentration)” value ([2]; APC pre-pulsed 24 hours with Cop 1 20 μg (Batch II))?
**A.** 10,465 cpm

**Q.** What about the “cpm (Cop 1 Pulsing Concentration)” value ([2]; APC pre-pulsed 24 hours with Cop 1 40 μg (Batch II)) of the same substance?
**A.** 7,653 cpm

**Q.** And the “cpm (Cop 1 Pulsing Concentration)” value ([2]; APC pre-pulsed 24 hours with Cop 1 80 μg (Batch II))?
**A.** 4,628 cpm

**Q.** What about the “long-term survival from lethal graft-versus-host disease” value ([3]; 600 μg per injection) of the same substance?
**A.** improved long-term survival

**Q.** And the “animals (without GVHD) to the observation period of 140 days after transplant” value ([3]; 600 μg per injection, Batch I)?
**A.** Nine of 25

**Q.** And the “mice survived more than 140 days after transplant” value ([3]; 600 μg per injection, Batch I)?
**A.** 56%

**Q.** What about the “overall disease severity (disease severity score, mean body weight curves)” value ([3]; 600 μg per injection, Batch I) of the same substance?
**A.** improved overall disease severity

**Q.** What about the “overall incidence of GVHD” value ([3]; day 30 after transplant, Cop 1 Batch I) of the same substance?
**A.** 12%

**Q.** What about the “overall incidence of GVHD” value ([3]; day 70 after transplant, Cop 1 Batch I) of the same substance?
**A.** 48%

**Q.** And the “median onset of GVHD” value ([3]; days after transplant, 600 μg per injection)?
**A.** 73 days

**Q.** What about the “onset of GVHD, range” value ([3]; days after transplant, in 12/25 treated animals, 600 μg per injection) of the same substance?
**A.** 32 to 112 days

**Q.** What about the “mice survived more than 140 days after transplant” value ([3]; survivors/treated, 600 μg per injection, Cop 1 Batch I) of the same substance?
**A.** 14/25
